The NIST ThermoML archive (doi:10.1016/j.jct.2005.03.002)

Details: 101.33 kPa, Liquid

CCOS(=O)(=O)[O-].CCn1cc[n+](C)c1 [1-ethyl-3-methylimidazolium ethyl sulfate]
Details | mass density [kg/m3]
278.2 K | 1243
288.2 K | 1236.2
298.2 K | 1229.6
308.2 K | 1223
318.2 K | 1216.2
328.2 K | 1209.9
338.2 K | 1203.7
